Patent publication US6762170B1, “2-(purin-9-yl)-tetrahydrofuran-3,4-diol derivatives” (SmithKlineBeecham Corporation, priority 1998, dated 2004)
Structures can show the parent of a compound that is named as a salt.

Legend:
Type in all cases: cell-based
Adenosine 3 receptor = target: T1, Adenosine 3 receptor (Homo sapiens, UniProt P0DMS8); test: Agonist activity against adenosine 3 receptor subtype (CHO cells, forskolin-enhanced cAMP, SPAP reporter); details: EC50 ratio to NECA; transfected CHO cells, forskolin-enhanced cAMP reflected by SPAP
T1 construct: expressed in transfected cells; host or cells: Chinese hamster ovary (CHO) cells, co-transfected with a CRE-SPAP reporter
T1 sequence (P0DMS8 1-318): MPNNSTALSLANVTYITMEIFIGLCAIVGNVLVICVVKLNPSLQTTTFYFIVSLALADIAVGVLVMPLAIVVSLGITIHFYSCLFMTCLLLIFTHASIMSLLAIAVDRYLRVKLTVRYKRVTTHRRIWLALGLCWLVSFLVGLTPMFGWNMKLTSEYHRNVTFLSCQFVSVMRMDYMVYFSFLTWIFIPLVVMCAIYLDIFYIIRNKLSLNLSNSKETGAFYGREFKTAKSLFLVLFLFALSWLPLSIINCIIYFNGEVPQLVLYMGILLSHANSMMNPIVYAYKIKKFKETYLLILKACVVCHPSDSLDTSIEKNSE
Method in brief: (§1)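 CHO cells expressed the human receptor plus a cAMP response element–driven SPAP reporter. Agonism was measured as SPAP change from forskolin-enhanced cAMP for A1 and A3, and from basal cAMP for A2a. EC50 is expressed as a ratio to that of NECA.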

Adenosine 1 receptor = target: T2, Adenosine 1 receptor (Homo sapiens, UniProt P30542); test: Agonist activity against adenosine 1 receptor subtype (CHO cells, forskolin-enhanced cAMP, SPAP reporter); details: EC50 ratio to NECA; transfected CHO cells, forskolin-enhanced cAMP reflected by SPAP
T2 construct: expressed in transfected cells; host or cells: Chinese hamster ovary (CHO) cells, co-transfected with a CRE-SPAP reporter
T2 sequence (P30542 1-326): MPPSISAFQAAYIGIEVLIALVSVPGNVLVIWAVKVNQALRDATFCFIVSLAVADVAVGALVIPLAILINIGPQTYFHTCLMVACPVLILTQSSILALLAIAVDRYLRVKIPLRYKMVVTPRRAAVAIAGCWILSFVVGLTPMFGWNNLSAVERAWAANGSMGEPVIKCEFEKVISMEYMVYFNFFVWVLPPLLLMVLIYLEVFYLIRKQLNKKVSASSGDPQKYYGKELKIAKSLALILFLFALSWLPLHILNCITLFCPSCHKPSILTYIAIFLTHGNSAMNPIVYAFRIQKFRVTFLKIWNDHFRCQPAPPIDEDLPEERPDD
Method in brief: as §1

Adenosine 2a receptor = target: T3, Adenosine 2a receptor (Homo sapiens, UniProt P29274); test: Agonist activity against adenosine 2a receptor subtype (CHO cells, cAMP response element/SPAP reporter); details: EC50 ratio to NECA; transfected CHO cells, basal cAMP reflected by SPAP
T3 construct: expressed in transfected cells; host or cells: Chinese hamster ovary (CHO) cells, co-transfected with a CRE-SPAP reporter
Method in brief: as §1

T3 sequence (P29274 whole entry): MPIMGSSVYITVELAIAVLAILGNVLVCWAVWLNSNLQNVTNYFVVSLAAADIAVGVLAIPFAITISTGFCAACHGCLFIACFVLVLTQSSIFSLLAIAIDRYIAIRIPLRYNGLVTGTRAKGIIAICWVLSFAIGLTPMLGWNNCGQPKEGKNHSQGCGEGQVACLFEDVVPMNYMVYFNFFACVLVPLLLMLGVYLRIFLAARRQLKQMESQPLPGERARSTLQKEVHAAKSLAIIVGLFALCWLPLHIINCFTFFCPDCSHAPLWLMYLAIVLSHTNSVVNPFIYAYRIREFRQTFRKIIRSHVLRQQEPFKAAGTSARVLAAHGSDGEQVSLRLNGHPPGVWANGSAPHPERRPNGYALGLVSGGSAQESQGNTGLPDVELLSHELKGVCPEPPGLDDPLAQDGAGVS

SMILES | A3 (EC50 values as a ratio of that of NECA) (Adenosine 3 receptor) | A1 (EC50 values as a ratio of that of NECA) (Adenosine 1 receptor) | A2a (EC50 values as a ratio of that of NECA) (Adenosine 2a receptor)
CCc1cc(C2OC(n3cnc4c(NC(CC)CC)nc(NC5CCN(Cc6ccccc6)C5)nc43)C(O)C2O)on1 [Example 49, (2R,3R,4S,5S)-2-[2-(1-Benzyl-pyrrolidin-3S-1-ylamino)-6-(1-ethyl-propylamino)purin-9-yl]-5-(3-ethyl-isoxazol-5-yl)-tetrahydro-furan-3,4-diol formate] | >350 | 28.28 | 7.79
CCC(CC)Nc1nc(NCCc2cn(C)cn2)nc2c1ncn2C1OC(c2cc(C=NO)no2)C(O)C1O (stereo not drawn) [Example 50, 5-(5R-{6-Ethyl-propylamino)-2-[2(1-methyl-1H-imidazol-4-yl)-ethylamino]-purin-9-yl}-3S,4R-dihydroxy-tetrahydro-furan-2S-yl)-isoxazole-3-carbaldehyde oxime diformate] | >113 | >6188 | 7.26
CCc1cc(C2OC(n3cnc4c(NC(CO)Cc5ccccc5)nc(NCCN5CCOCC5)nc43)C(O)C2O)on1 [Example 51, (2S,3S,4R,5R)-2-(3-Ethyl-isoxazol-5-yl)-5-[6-(1S-hydroxymethyl-2-phenyl-ethylamino)-2-(2-morpholin-4-yl-ethylamino)-purin-9-yl]-tetrahydro-furan-3,4-diol diformate] | >340 | 22.53 | 4.86
CCc1cc(C2OC(n3cnc4c(NCc5ccccc5)nc(NCCc5ccccn5)nc43)C(O)C2O)on1.O=CO.O=CO [Example 52, (2S,3S,4R,5R)-2-(3-Ethyl-isoxazol-5-yl)-5-[6-benzylamino-2-(2-pyridin-2-yl-ethylamino)-purin-yl]-tetrahydro-furan-3,4-diol diformate] | >340 | 1359.98 | 21.63
CCc1cc([C@H]2O[C@@H](n3cnc4c(NC(CC)CC)nc(NCCNc5ccccn5)nc43)[C@H](O)[C@@H]2O)on1.O=CO.O=CO [Example 53, (2S,3S,4R,5R)-2-(3-Ethyl-isoxazol-5-yl)-5-{6-(1-ethyl-propylamino)-2-[2-(pyridin-2-ylamino)-ethylamino]-purin-9-yl}-tetrahydro-furan-3,4-diol diformate] | >229 | 128.9 | 2.11
CCC(CC)Nc1nc(NCCN2CCCCC2)nc2c1ncn2[C@@H]1O[C@H](c2cc(C(C)O)no2)[C@@H](O)[C@H]1O.O=CO.O=CO (stereo partly drawn) [Example 54, (2R,3R,4S,5S)-2-[6-(1-Ethyl-propylamino)-2-(2-piperidin-1-yl-ethylamino)-purin-9-yl]-5-[3-(1-hydroxy-ethyl)-isoxazol-5-yl]-tetrahydro-furan-3,4-diol diformate] | >350 | 10.18 | 0.066
CCC(CC)Nc1nc(NCCN2CCCCC2)nc2c1ncn2C1OC(c2cc(C)no2)C(O)C1O.O=CO.O=CO [Example 55, (2R,3R,4S,5S)-2-[6-(1-Ethyl-propylamino)-2-(2-piperidin-1-yl-ethylamino)-purin-9-yl]-5-(3-methyl-isoxazol-5-yl)-tetrahydro-furan-3,4-diol diformate] | >353 | 155.3 | 0.175
CCCc1cc(C2OC(n3cnc4c(NC(CC)CC)nc(NCCN5CCCCC5)nc43)C(O)C2O)on1.O=CO.O=CO [Example 56, (2R,3R,4S,5S)-2-[6-(1-Ethyl-propylamino)-2-(2-piperidin-yl-ethylamino)-purin-9-yl]-5-(3-propyl-isoxazol-5-yl)-tetrahydro-furan-3,4-diol diformate] | >525 | 101.31 | 5.19
CCC(CC)Nc1nc(NCCN2CCCCC2)nc2c1ncn2C1OC(c2cc(CO)no2)C(O)C1O.O=CO.O=CO [Example 57, (2R,3R,4S,5S)-2-[6-(1-Ethyl-propylamino)-2-(2-piperidin-1-yl-ethylamino)-purin-9-yl]-5-(3-hydroxymethyl-isoxazol-5-yl)-tetrahydro-furan-3,4-diol diformate] | >525 | 80.76 | 0.79
CCC(CC)Nc1nc(NCCc2cn(C)cn2)nc2c1ncn2[C@@H]1O[C@H](c2cc(C(C)O)no2)[C@@H](O)[C@H]1O.O=CO.O=CO (stereo partly drawn) [Example 58, (2R,3R,4S,5S)-2-{6-(1-Ethyl-propylamino)-2-[2-(1-methyl-1H-imidazol-4-yl)-ethylamino]-purin-9-yl}-5-[3-(1-hydroxy-ethyl)-isoxazol-5-yl]-tetrahydro-furan-3,4-diol diformate] | >525 | 812.2 | 0.244
CCc1cc(C2OC(n3cnc4c(NC(CO)Cc5ccccc5)nc(NCCNc5ccccn5)nc43)C(O)C2O)on1 [Example 62, (2S,3S,4R,5R)-2-(3-Ethyl-isoxazol-5-yl)-5-{6-(1S-hydroxymethyl-2-phenyl-ethylamino)-2-[2-(pyridin-2-ylamino)-ethylamino]-purin-9-yl}-tetrahydro-furan-3,4-diol diformate] | >303 | 21.37 | 1.03
CCc1cc(C2OC(n3cnc4c(NC(CO)Cc5ccccc5)nc(NCCN5CCCC5)nc43)C(O)C2O)on1 [Example 63, (2S,3S,4R,5R)-2-(3-Ethyl-isoxazol-5-yl)-5-[6-(1S-hydroxymethyl-2-phenyl-ethylamino)-2-(2-pyrrolidin-1-yl-ethylamino)-purin-9-yl]-tetrahydro-furan-3,4-diol diformate] | >262 | 148.43 | 10.57
CCc1cc(C2OC(n3cnc4c(NC(CO)Cc5ccccc5)nc(NCCN)nc43)C(O)C2O)on1 [Example 64, (2R,3R,4S,5S)-2-[2-(2-Amino-ethylamino)-6-(1S-hydroxymethyl-2-phenyl-ethylamino)-purin-9-yl]-5-(3-ethyl-isoxazol-5-yl)-tetrahydro-furan-3,4-diol diformate] | >262 | 44.21 | 16.03
CCC(CC)Nc1nc(NCCN2CCCCC2)nc2c1ncn2C1OC(c2cc(Br)no2)C(O)C1O.O=CO.O=CO [Example 67, (2S,3S,4R,5R)-2-(3-Bromo-isoxazol-5-yl)-5-[6-(1-ethyl-propylamino)-2-(2-piperidin-1-yl-ethylamino)-purin-9-yl]-tetrahydro-furan-3,4-diol diformate] | >238 | 219.1 | 2.59
